This is an account of results in US12522597B2, “Methods and compositions for modulating splicing” (Skyhawk Therapeutics, Inc., priority 2019, dated 2026).

For one series, the system named is MDR1. The experiment in a line: MDCK-MDR1 permeability assay (BBB penetration potential). Type of series: in vitro ADME. To be noted: dog; for efflux ratio at 120 min, 5 μM: MDCK-MDR1, pH 7.4, MDCK-MDR1: Efflux; for Papp A→B at 120 min, 5 μM: MDCK-MDR1, pH 7.4, MDCK-MDR1: Papp A-B; for Papp B→A at 120 min, 5 μM: MDCK-MDR1, pH 7.4, MDCK-MDR1: Papp B-A. Here is the method: (§1) Each determination is performed in duplicate. […] Analytical conditions are outlined below.

Series [1] has as its system MDR1-MDCK cell monolayers. The description is as above. Type of series: in vitro ADME. To be noted: dog, MDCK-MDR1, 120 min, 5 μM, pH 7.4. Here is the method: as §1
Another series relates to mHTT protein. In words: mHTT protein assay (2B7-MW1, Mesoscale Discovery). The series is classed as cell-based, human. The note with it: GM04724 (CAG 70/20) Huntington's disease patient lymphoblast cells, 48 hours, 2B7-MW1 MSD; read-out: HTT Potency - Protein EC50 mHTT (average). A digest of the protocol:
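GM04724 Huntington's patient lymphoblasts (CAG 70/20) were treated for 48 h at 10 μM to 0.6 nM. mHTT was quantified by 2B7-MW1 MSD immunoassay, whose signal depends on polyQ expansion and HTT fragment size. Viability was run on a parallel plate by CellTiter-Glo.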

`Cn1cc(-c2cc(O)c(-c3ccc(O[C@H]4C[C@@H]5CCC(N5)[C@H]4F)nn3)cn2)cn1` (single isomer, unassigned) [63-ENT2]: in the series on MDR1, the efflux ratio (in general, a quotient of directional permeabilities that is used to spot active efflux) at 120 min, 5 μM came out at 38; the apical-to-basolateral permeability (Papp A→B) – broadly, the apparent permeability from the apical to the basolateral side of a cell layer – at 120 min, 5 μM turned out to be 0.26 ×10⁻⁶ cm/s; the Papp B→A (usually how fast a substance crosses the layer from the basolateral side) at 120 min, 5 μM was 9.6 ×10⁻⁶ cm/s. In series [1], the “MDCK-MDR1: % Recov A-B” value was 96% and the “MDCK-MDR1: % Recov B-A” value amounted to 107%. For the same molecule, the EC50 – broadly, the concentration needed to bring the measured effect to its halfway point – in the series with mHTT protein fell in the range of 501 to 10000 nM.
In the case of `Cc1nc(-c2ccc(-c3ccc(O[C@@H]4C[C@H]5CCC[C@H](N5)[C@@H]4F)nn3)c(O)c2)co1` (single isomer, unassigned) [92-ENT1], in the series on MDR1, the efflux ratio at 120 min, 5 μM was 5; the Papp A→B at 120 min, 5 μM was determined as 5.99 ×10⁻⁶ cm/s; the apparent permeability from basolateral to apical (Papp B→A) at 120 min, 5 μM came out at 30.9 ×10⁻⁶ cm/s. In series [1], the “MDCK-MDR1: % Recov A-B” value worked out at 65% and the “MDCK-MDR1: % Recov B-A” value came to 74%. For the same molecule, the concentration for a half-maximal effect (EC50) in the series on mHTT protein fell in the range of 101 to 500 nM.
Regarding `Cc1nc(-c2ccc(-c3ccc(O[C@H]4C[C@@H]5CCC[C@@H](N5)[C@H]4F)nn3)c(O)c2)co1` (single isomer, unassigned) [92-ENT2], in the series on MDR1, the efflux ratio at 120 min, 5 μM was determined as 9; the apical-to-basolateral permeability (Papp A→B) at 120 min, 5 μM was found to be 6.04 ×10⁻⁶ cm/s; the Papp B→A at 120 min, 5 μM was found to be 54.6 ×10⁻⁶ cm/s. Further, in series [1], the “MDCK-MDR1: % Recov A-B” value is on record as 72% and the “MDCK-MDR1: % Recov B-A” value is recorded as 89%. For the same molecule, in the series with mHTT protein, the EC50 is 101 to 500 nM.
In the case of `Oc1cc2ncccc2cc1-c1ccc(O[C@@H]2C[C@H]3CCC[C@H](N3)[C@@H]2F)nn1` (single isomer, unassigned) [103-ENT1], in the series on MDR1, the efflux ratio at 120 min, 5 μM came out at 16; the Papp A→B at 120 min, 5 μM came out at 3.92 ×10⁻⁶ cm/s; the Papp B→A at 120 min, 5 μM came to 61.5 ×10⁻⁶ cm/s. For the same molecule, in series [1], the “MDCK-MDR1: % Recov A-B” value was determined as 95% and the “MDCK-MDR1: % Recov B-A” value came to 101%. Also, the EC50 in the series on mHTT protein lay in the range of 501 to 10000 nM.
In the case of `C[C@]12CC[C@](C)(N1)[C@H](F)[C@H](Oc1ccc(-c3ccc(-n4cccn4)cc3O)nn1)C2` (single isomer, unassigned) [153-ENT1], in the series with MDR1, the efflux ratio at 120 min, 5 μM came to 5; the apical-to-basolateral permeability (Papp A→B) at 120 min, 5 μM is 7.44 ×10⁻⁶ cm/s; the apparent permeability from basolateral to apical (Papp B→A) at 120 min, 5 μM stood at 34.4 ×10⁻⁶ cm/s. Further, in series [1], the “MDCK-MDR1: % Recov A-B” value worked out at 67% and the “MDCK-MDR1: % Recov B-A” value was determined as 76%. Also, the half-maximal effective concentration (EC50) in the series with mHTT protein was 51 to 100 nM.
Regarding `Oc1cc(-c2ccccn2)ccc1-c1ccc(O[C@@H]2C[C@H]3CCC[C@H](N3)[C@@H]2F)nn1` (single isomer, unassigned) [77-ENT1], in the series with MDR1, the efflux ratio at 120 min, 5 μM is 4; the apical-to-basolateral permeability (Papp A→B) at 120 min, 5 μM stood at 5.64 ×10⁻⁶ cm/s; the basolateral-to-apical permeability (Papp B→A) at 120 min, 5 μM is 22.7 ×10⁻⁶ cm/s. In addition, in series [1], the “MDCK-MDR1: % Recov A-B” value was found to be 52% and the “MDCK-MDR1: % Recov B-A” value is 70%. Moreover, the concentration for a half-maximal effect (EC50) in the series on mHTT protein fell in the range of 101 to 500 nM.
As for `C[C@@]12CCC[C@@](C)(N1)[C@@H](F)[C@@H](Oc1ccc(-c3ccc(C#N)cc3O)nn1)C2` (single isomer, unassigned) [145-ENT2], in the series on MDR1, the efflux ratio at 120 min, 5 μM is 8; the Papp A→B at 120 min, 5 μM turned out to be 7.75 ×10⁻⁶ cm/s; the Papp B→A at 120 min, 5 μM is 58.9 ×10⁻⁶ cm/s. In series [1], the “MDCK-MDR1: % Recov A-B” value stood at 89% and the “MDCK-MDR1: % Recov B-A” value is on record as 100%. Also, the EC50 in the series with mHTT protein was in the range of 501 to 10000 nM.
On to `Cc1cncc(-c2ccc(-c3ccc(O[C@H]4C[C@@H]5CCC[C@@H](N5)[C@H]4F)nn3)c(O)c2)c1` (single isomer, unassigned) [89-ENT2], for which, in the series on MDR1, the efflux ratio at 120 min, 5 μM was found to be 13; the Papp A→B at 120 min, 5 μM came out at 2.61 ×10⁻⁶ cm/s; the basolateral-to-apical permeability (Papp B→A) at 120 min, 5 μM was 34 ×10⁻⁶ cm/s. Also, in series [1], the “MDCK-MDR1: % Recov A-B” value stood at 55% and the “MDCK-MDR1: % Recov B-A” value is 70%. In addition, in the series with mHTT protein, the EC50 was 501 to 10000 nM.
In the case of `Oc1cc(-c2cnn3ccccc23)ccc1-c1ccc(O[C@H]2C[C@@H]3CCC[C@@H](N3)[C@H]2F)nn1` (single isomer, unassigned) [91-ENT2], in the series on MDR1, the efflux ratio at 120 min, 5 μM is 2; the Papp A→B at 120 min, 5 μM is 4.4 ×10⁻⁶ cm/s; the Papp B→A at 120 min, 5 μM was found to be 10.5 ×10⁻⁶ cm/s. Further, in series [1], the “MDCK-MDR1: % Recov A-B” value came to 30% and the “MDCK-MDR1: % Recov B-A” value is 48%. Further, the EC50 with mHTT protein was in the range of 501 to 10000 nM.
Consider `Oc1cc(-c2cc[nH]n2)ccc1-c1ccc(O[C@H]2C[C@@H]3CCC[C@@H](N3)[C@H]2F)nn1` (single isomer, unassigned) [66-ENT2], for which, in the series on MDR1, the efflux ratio at 120 min, 5 μM is 9; the apparent permeability from apical to basolateral (Papp A→B) at 120 min, 5 μM was 1.18 ×10⁻⁶ cm/s; the Papp B→A at 120 min, 5 μM was determined as 11.2 ×10⁻⁶ cm/s. For the same molecule, in series [1], the “MDCK-MDR1: % Recov A-B” value was 79% and the “MDCK-MDR1: % Recov B-A” value was 78%. Moreover, the 50% effective concentration (EC50) in the series with mHTT protein fell in the range of 51 to 100 nM.
As to `Oc1cc(-n2ccnc2)ccc1-c1ccc(O[C@@H]2C[C@H]3CC(F)(F)[C@@H](C2)N3)nn1` (single isomer, unassigned) [51-ENT1], in the series on MDR1, the efflux ratio at 120 min, 5 μM came out at 2; the apparent permeability from apical to basolateral (Papp A→B) at 120 min, 5 μM turned out to be 32.2 ×10⁻⁶ cm/s; the Papp B→A at 120 min, 5 μM was 51.5 ×10⁻⁶ cm/s. For the same molecule, in series [1], the “MDCK-MDR1: % Recov A-B” value was found to be 90% and the “MDCK-MDR1: % Recov B-A” value is on record as 99%. The EC50 in the series with mHTT protein lay in the range of 501 to 10000 nM.
As for `Cn1cc(-c2ccc(-c3ccc(O[C@@H]4C[C@@H]5CCC[C@@H](N5)[C@@H]4F)nn3)c(O)c2)cn1` (single isomer, unassigned) [122-ENT2], in the series with MDR1, the efflux ratio at 120 min, 5 μM was determined as 6; the Papp A→B at 120 min, 5 μM was found to be 6.08 ×10⁻⁶ cm/s; the apparent permeability from basolateral to apical (Papp B→A) at 120 min, 5 μM came to 38.4 ×10⁻⁶ cm/s. For the same molecule, in series [1], the “MDCK-MDR1: % Recov A-B” value stood at 60% and the “MDCK-MDR1: % Recov B-A” value stood at 76%. The concentration giving a half-maximal response (EC50) with mHTT protein lay within 501 to 10000 nM.
For the molecule `C[C@]12CCC[C@](C)(N1)[C@H](F)[C@H](Oc1ccc(-c3ccc(C#N)cc3O)nn1)C2` (single isomer, unassigned) [145-ENT1], in the series with MDR1, the efflux ratio at 120 min, 5 μM turned out to be 4; the Papp A→B at 120 min, 5 μM amounted to 9.39 ×10⁻⁶ cm/s; the basolateral-to-apical permeability (Papp B→A) at 120 min, 5 μM stood at 42 ×10⁻⁶ cm/s. In series [1], the “MDCK-MDR1: % Recov A-B” value came to 82% and the “MDCK-MDR1: % Recov B-A” value is 87%. In the series on mHTT protein, the EC50 lay in the range of 501 to 10000 nM.
For the molecule `Cc1cc(-c2ccc(-c3ccc(O[C@H]4C[C@@H]5CCC[C@@H](N5)[C@H]4F)nn3)c(O)c2)cs1` (single isomer, unassigned) [101-ENT2], in the series with MDR1, the efflux ratio at 120 min, 5 μM is 1; the apparent permeability from apical to basolateral (Papp A→B) at 120 min, 5 μM turned out to be 0.92 ×10⁻⁶ cm/s; the Papp B→A at 120 min, 5 μM is 0.55 ×10⁻⁶ cm/s. Also, in series [1], the “MDCK-MDR1: % Recov A-B” value turned out to be 20% and the “MDCK-MDR1: % Recov B-A” value is recorded as 53%. Further, the EC50 with mHTT protein lay in the range of 16 to 50 nM.
For the molecule `Oc1cc(-c2ccc3nccn3c2)ccc1-c1ccc(O[C@H]2C[C@@H]3CCC[C@@H](N3)[C@H]2F)nn1` (single isomer, unassigned) [84-ENT2], in the series on MDR1, the efflux ratio at 120 min, 5 μM stood at 14; the Papp A→B at 120 min, 5 μM amounted to 1.63 ×10⁻⁶ cm/s; the basolateral-to-apical permeability (Papp B→A) at 120 min, 5 μM is 22.8 ×10⁻⁶ cm/s. Moreover, in series [1], the “MDCK-MDR1: % Recov A-B” value came to 43% and the “MDCK-MDR1: % Recov B-A” value is listed as 73%. The EC50 in the series with mHTT protein was 16 to 50 nM.
For the molecule `Oc1cc(-n2ncc3ccccc32)ccc1-c1ccc(O[C@H]2C[C@@H]3CC[C@@H](N3)[C@H]2F)nn1` (single isomer, unassigned) [114-ENT2], in the series with MDR1, the efflux ratio at 120 min, 5 μM came out at 4; the Papp A→B at 120 min, 5 μM was 3.86 ×10⁻⁶ cm/s; the Papp B→A at 120 min, 5 μM came out at 15.1 ×10⁻⁶ cm/s. For the same molecule, in series [1], the “MDCK-MDR1: % Recov A-B” value worked out at 18% and the “MDCK-MDR1: % Recov B-A” value amounted to 42%. Besides, in the series with mHTT protein, the EC50 lay within 501 to 10000 nM.
In the case of `Oc1cc2nccnc2cc1-c1ccc(O[C@H]2C[C@@H]3CCC[C@@H](N3)[C@H]2F)nn1` (single isomer, unassigned) [104-ENT2], in the series on MDR1, the efflux ratio at 120 min, 5 μM is 5; the Papp A→B at 120 min, 5 μM worked out at 10.1 ×10⁻⁶ cm/s; the Papp B→A at 120 min, 5 μM came out at 53.6 ×10⁻⁶ cm/s. For the same molecule, in series [1], the “MDCK-MDR1: % Recov A-B” value was 93% and the “MDCK-MDR1: % Recov B-A” value came out at 99%. Also, in the series on mHTT protein, the 50% effective concentration (EC50) lay in the range of 501 to 10000 nM.
